Data taken from ChEMBL document CHEMBL3885881, “DrugMatrix”.

Species: Rattus norvegicus
Test: DrugMatrix - Regimen: Daily Repeat
Assay type: toxicity, organism-based, Sprague-Dawley
Set-up: regimen Daily Repeat, gender Male, age 6-8 weeks
Conditions: in vivo, po, route oral GAVAGE, vehicle 60 % PEG400; for ABSOLUTE BASOPHIL / ABSOLUTE EOSINOPHIL / ABSOLUTE LYMPHOCYTE / ABSOLUTE MONOCYTE / ABSOLUTE SEGMENTED NEUTROPHIL / BASOPHIL / EOSINOPHIL / ERYTHROCYTE COUNT / HEMATOCRIT / HEMOGLOBIN / LEUKOCYTE COUNT / LYMPHOCYTE / MEAN CORPUSCULAR HEMOGLOBIN / MEAN CORPUSCULAR HEMOGLOBIN CONCENTRATION / MEAN CORPUSCULAR VOLUME / MONOCYTE / NEUTROPHIL / NUCLEATED RED BLOOD CELLS / PLATELET COUNT: tissue Blood; for ALANINE AMINOTRANSFERASE / ALBUMIN / ALKALINE PHOSPHATASE / ASPARTATE AMINOTRANSFERASE / BLOOD UREA NITROGEN / CARBON DIOXIDE / CHLORIDE / CHOLESTEROL / CREATINE PHOSPHOKINASE / CREATININE / GLUCOSE / LACTATE DEHYDROGENASE / LIPASE / PHOSPHORUS / POTASSIUM / SODIUM / TOTAL BILIRUBIN / TOTAL PROTEIN / URIC ACID: tissue Plasma
[1] = 0 mg/kg, 72 h, dose level Control, time 3 day
[2] = 0 mg/kg, 120 h, dose level Control, time 5 day
[3] = 0.001 mg/kg, 72 h, dose level Low, time 3 day

SMILES: N[C@@H](Cc1cc(I)c(Oc2ccc(O)c(I)c2)c(I)c1)C(=O)O [LIOTHYRONINE]
- ABSOLUTE BASOPHIL [1]: 0 CELLS/uL
- ABSOLUTE EOSINOPHIL [1]: 48.67 CELLS/uL
- ABSOLUTE LYMPHOCYTE [1]: 11723.33 CELLS/uL
- ABSOLUTE MONOCYTE [1]: 132.67 CELLS/uL
- ABSOLUTE SEGMENTED NEUTROPHIL [1]: 1362 CELLS/uL
- BASOPHIL [1]: 0%
- EOSINOPHIL [1]: 0.33%
- ERYTHROCYTE COUNT [1]: 5.61 x10E6/uL
- HEMATOCRIT [1]: 33.53%
- HEMOGLOBIN [1]: 13.13 G/DL
- LEUKOCYTE COUNT [1]: 13.27 x10E3/uL
- LYMPHOCYTE [1]: 88.33%
- MEAN CORPUSCULAR HEMOGLOBIN [1]: 23.4 pg
- MEAN CORPUSCULAR HEMOGLOBIN CONCENTRATION [1]: 39.17 G/DL
- MEAN CORPUSCULAR VOLUME [1]: 59.8 fL
- MONOCYTE [1]: 1%
- NEUTROPHIL [1]: 10.33%
- NUCLEATED RED BLOOD CELLS [1]: 0.67 /100WBC
- PLATELET COUNT [1]: 967.33 x10E3/uL
- ALANINE AMINOTRANSFERASE [1]: 60.33 u/L
- ALBUMIN [1]: 4.3 G/DL
- ALKALINE PHOSPHATASE [1]: 403.33 u/L
- ASPARTATE AMINOTRANSFERASE [1]: 87 u/L
- BLOOD UREA NITROGEN [1]: 14.67 mg/dL
- CARBON DIOXIDE [1]: 31 mmol/L
- CHLORIDE [1]: 103 MEQ/L
- CHOLESTEROL [1]: 82.33 mg/dL
- CREATINE PHOSPHOKINASE [1]: 376.33 u/L
- CREATININE [1]: 0.17 mg/dL
- GLUCOSE [1]: 146.33 mg/dL
- LACTATE DEHYDROGENASE [1]: 196.33 u/L
- LIPASE [1]: 12.33 u/L
- PHOSPHORUS [1]: 11.43 mg/dL
- POTASSIUM [1]: 6.79 MEQ/L
- SODIUM [1]: 147.27 MEQ/L
- TOTAL BILIRUBIN [1]: 0.2 mg/dL
- TOTAL PROTEIN [1]: 6.13 G/DL
- URIC ACID [1]: 1.33 mg/dL
- ABSOLUTE BASOPHIL [2]: 0 CELLS/uL
- ABSOLUTE EOSINOPHIL [2]: 19 CELLS/uL
- ABSOLUTE LYMPHOCYTE [2]: 4849 CELLS/uL
- ABSOLUTE MONOCYTE [2]: 38 CELLS/uL
- ABSOLUTE SEGMENTED NEUTROPHIL [2]: 660.67 CELLS/uL
- BASOPHIL [2]: 0%
- EOSINOPHIL [2]: 0.33%
- ERYTHROCYTE COUNT [2]: 4.95 x10E6/uL
- HEMATOCRIT [2]: 29.67%
- HEMOGLOBIN [2]: 11.53 G/DL
- LEUKOCYTE COUNT [2]: 5.57 x10E3/uL
- LYMPHOCYTE [2]: 87.67%
- MEAN CORPUSCULAR HEMOGLOBIN [2]: 23.33 pg
- MEAN CORPUSCULAR HEMOGLOBIN CONCENTRATION [2]: 38.9 G/DL
- MEAN CORPUSCULAR VOLUME [2]: 59.87 fL
- MONOCYTE [2]: 0.67%
- NEUTROPHIL [2]: 11.33%
- NUCLEATED RED BLOOD CELLS [2]: 0.33 /100WBC
- PLATELET COUNT [2]: 653.33 x10E3/uL
- ALANINE AMINOTRANSFERASE [2]: 48.33 u/L
- ALBUMIN [2]: 4.27 G/DL
- ALKALINE PHOSPHATASE [2]: 396 u/L
- ASPARTATE AMINOTRANSFERASE [2]: 75.67 u/L
- BLOOD UREA NITROGEN [2]: 15 mg/dL
- CARBON DIOXIDE [2]: 31.33 mmol/L
- CHLORIDE [2]: 103 MEQ/L
- CHOLESTEROL [2]: 76.33 mg/dL
- CREATINE PHOSPHOKINASE [2]: 182.67 u/L
- CREATININE [2]: 0.2 mg/dL
- GLUCOSE [2]: 181 mg/dL
- LACTATE DEHYDROGENASE [2]: 88 u/L
- LIPASE [2]: 8.33 u/L
- PHOSPHORUS [2]: 12.33 mg/dL
- POTASSIUM [2]: 6.09 MEQ/L
- SODIUM [2]: 146.47 MEQ/L
- TOTAL BILIRUBIN [2]: 0.17 mg/dL
- TOTAL PROTEIN [2]: 6.3 G/DL
- URIC ACID [2]: 1.43 mg/dL
- ABSOLUTE BASOPHIL [3]: 0 CELLS/uL
- ABSOLUTE EOSINOPHIL [3]: 72.67 CELLS/uL
- ABSOLUTE LYMPHOCYTE [3]: 12680.33 CELLS/uL
- ABSOLUTE MONOCYTE [3]: 379.67 CELLS/uL
- ABSOLUTE SEGMENTED NEUTROPHIL [3]: 1067.33 CELLS/uL
- BASOPHIL [3]: 0%
- EOSINOPHIL [3]: 0.67%
- ERYTHROCYTE COUNT [3]: 5.31 x10E6/uL
- HEMATOCRIT [3]: 34.1%
- HEMOGLOBIN [3]: 13.1 G/DL
- LEUKOCYTE COUNT [3]: 14.2 x10E3/uL
- LYMPHOCYTE [3]: 89.33%
- MEAN CORPUSCULAR HEMOGLOBIN [3]: 24.67 pg
- MEAN CORPUSCULAR HEMOGLOBIN CONCENTRATION [3]: 38.47 G/DL
- MEAN CORPUSCULAR VOLUME [3]: 64.17 fL
- MONOCYTE [3]: 2.33%
- NEUTROPHIL [3]: 7.67%
- NUCLEATED RED BLOOD CELLS [3]: 0 /100WBC
- PLATELET COUNT [3]: 1001 x10E3/uL
- ALANINE AMINOTRANSFERASE [3]: 51 u/L
- ALBUMIN [3]: 4.37 G/DL
- ALKALINE PHOSPHATASE [3]: 321 u/L
- ASPARTATE AMINOTRANSFERASE [3]: 82.33 u/L
- BLOOD UREA NITROGEN [3]: 17.33 mg/dL
- CARBON DIOXIDE [3]: 29.67 mmol/L
- CHLORIDE [3]: 105.33 MEQ/L
- CHOLESTEROL [3]: 79.67 mg/dL
- CREATINE PHOSPHOKINASE [3]: 347 u/L
- CREATININE [3]: 0.16 mg/dL
- GLUCOSE [3]: 144 mg/dL
- LACTATE DEHYDROGENASE [3]: 167.33 u/L
- LIPASE [3]: 13 u/L
- PHOSPHORUS [3]: 12.4 mg/dL
- POTASSIUM [3]: 6.56 MEQ/L
- SODIUM [3]: 146.23 MEQ/L
- TOTAL BILIRUBIN [3]: 0.2 mg/dL
- TOTAL PROTEIN [3]: 6.03 G/DL
